Legend:
human MM cell lines = experiment: CTG / CS-BLI cell viability of human MM cell lines; type: cell-based
Experimental: (§1) Cell viability and growth of human MM cell lines were assessed using CellTitre-Glo (CTG) assay (Promega, Madison, Wis.) per kit instructions, or CS-BLI as described (Delmore et al., 2011). Briefly, cells were seeded (5×10^3 cells/well) into 96- or 384-well opaque plates, in supplemented media (40 or 50 uL) and incubated for 24 h prior to addition of drug. For co-culture experiments, HS27A cells were pre-seeded (5×10^3 cells/well) into each well in media prior (24 h) to the addition of MM cells. At each time point (24 h, 48 h, and/or 72 h) CTG reagent (10% volume) was added to each well, and plates were read using a microplate reader (BioTek Synergy 2, BioTek, Winooski, Va.).

MM.1S cells = experiment: Reverse phase protein array (RPPA) of treated MM.1S cells; type: cell-based, human
Experimental: MM.1S cells were seeded in 6-well plates (2×10^6/well) and cultured overnight prior to treatment. […] Lysates of these protein samples were processed by the Functional Proteomics RPPA Core Facility of the MD Anderson Cancer Center (Houston, Tex.), based on protocols and procedures outlined in the website of the facility (mdanderson.org/research/research-resources/core-facilities/functional-proteomicsrppa-core/rppa-process.html) and similarly to prior reports (Li et al., 2017). We mapped protein antibody labels to gene symbols available from Antibody Information and Protocols at MDACC (mdanderson.org/content/dam/mdanderson/documents/corefacilities/Functional%20Proteomics %20RPPA%20Core%20Facility/RPPA_Standard%20Ab%20List_Updated.xlsx). For data preprocessing, results from replicates of the same experimental run were averaged for each protein. The resulting matrix of RPPA data was further processed to generate log-transformed linear normalized data, linear normalized, and normalized median centered data. The differential protein expression analysis for dBET6- or JQ1-treated samples vs. controls were performed using the limma moderated t-statistic (Ritchie et al., 2015).

[1] = tested on: MM cells cultured in the presence of bone-marrow stromal cells; experiment: CS-BLI viability in co-culture with bone marrow stromal cells; type: cell-based, human; conditions: co-culture vs MM cells alone
Experimental: as §1

[2] = Tolerability of dBET6 treatment in mice; type: in vivo
Experimental: i. Subcutaneous MM xenograft model: Luciferase-positive MM.1S cells (10×106 Luc-GFP-MM.1S in matrigel) were transplanted into the right flank of NSG mice (100 μL). […] Treatments were carried out daily for 8 days and tumor size assessed daily using calipers. Mice were culled when tumors reached 2000 mm3 or when moribund.
ii. Xenograft model of diffuse MM lesions: Luciferase-positive MM.1S cells (1×106 Luc-GFP-MM.1S) were injected via the tail vein (IV) into NSG mice. […] BLI was undertaken weekly and mice were euthanized when moribund or upon signs of hind-limb paralysis.

Cc1sc2c(c1C)C(c1ccc(Cl)cc1)=N[C@@H](CC(=O)NCCCCCCCCNC(=O)COc1cccc3c1C(=O)N(C1CCC(=O)NC1=O)C3=O)c1nnc(C)n1-2 (stereo partly shown) [dBET6]
suppression of MM cell viability (human MM cell lines; MM.1S, RPMI-8226, JJN3, 48 h, CTG or CS-BLI, vs JQ1): more pronounced suppression of MM cell viability than JQ1
in vitro anti-MM activity (human MM cell lines; human MM cell lines, dBET6 compared to dBET1 or JQ1): more potent in vitro anti-MM activity of dBET6 compared to dBET1 or JQ1
loss of viability (human MM cell lines; larger panel of human MM cell lines, 48 h): significant loss of viability in all lines tested
protein changes at 4 hrs (MM.1S cells; MM.1S, dBET6 0.1 μM, JQ1 0.5 μM, 4 hrs): causes downregulation of Mcl-1, Cyclin B1 (not shown), and BRD4
RPPA expression of pro-survival and pro-apoptotic proteins (MM.1S cells; MM.1S, dBET6 0.1 μM, 4 h and 18 h): reduce the expression of key pro-survival proteins, such as MCL-1, c-MYC, and pS6, while leading to the upregulation of cell cycle inhibitor, p21, and cleavage of executioner caspases 3 and 7
protein changes at later time-points (MM.1S cells; MM.1S, dBET6 0.1 μM, later time-points): suppression of Ser240/Ser244 S6 phosphorylation; induction of p21, and increase in cleaved caspase3/7
suppression of c-MYC at protein level (MM.1S cells; dBET6 vs JQ1-treated MM.1S cells): more pronounced suppression of c-MYC
change in responsiveness in the presence of bone-marrow stromal cells [1]: No major changes in dBET6 responsiveness
tolerability ([2]; doses and schedules reported): Mice tolerated dBET6 treatment
efficacy or tolerability of alternative regimens ([2]; pilot experiments, lower or higher dose intensity (data not shown)): less efficacy or tolerability, respectively
